# Measurements as given in ChEMBL document CHEMBL4190387 (Bioorg Med Chem Lett, 2018).
# Test: in vitro
# Conditions: human, cryopreserved hepatocytes
row,SMILES,"hepatocyte CLint at 1.5 h, 1 µM [µL/min/1e6 cells]"
1,O=C(O)c1ccc(-c2ccc(OCCCCO)c(-c3ccc(N4CCCC4)c(C(F)(F)F)c3)c2)cc1,22
2,CCN(CC)c1ccc(-c2cc(-c3ccc(C(=O)O)cc3)ccc2OCCCCO)cc1C(C)(C)C,33
3,CCN(CC)c1ccc(-c2cc(-c3ccc(C(=O)O)cc3)ccc2OCCCO)cc1,11
4,CC(C)(C)c1cc(-c2cc(-c3ccc(C(=O)O)cc3)ccc2OCCO)ccc1N1CCCC1 [TRIFAROTENE],72

# Test: physchem
# Conditions: buffer, pH 6.5
row,SMILES,chromatographic logD
1,O=C(O)c1ccc(-c2ccc(OCCCCO)c(-c3ccc(N4CCCC4)c(C(F)(F)F)c3)c2)cc1,2.8
2,CCN(CC)c1ccc(-c2cc(-c3ccc(C(=O)O)cc3)ccc2OCCCCO)cc1C(C)(C)C,4.3
3,CCN(CC)c1ccc(-c2cc(-c3ccc(C(=O)O)cc3)ccc2OCCCO)cc1,1.9
4,CC(C)(C)c1cc(-c2cc(-c3ccc(C(=O)O)cc3)ccc2OCCO)ccc1N1CCCC1 [TRIFAROTENE],3.5
